According to US20210214421A1 (priority 2018, published 2021):

Columns and labels:
Assay in all cases: microbe, parasite or virus in culture
Format in all cases: cell-based
[1] = tested on: Staphylococcus pseudintermedius strain 23929; details: Staphylococcus pseudintermedius, 23929, 24 h, read-out: minimal inhibiting concentration (breakthrough point)
[2] = tested on: Staphylococcus pseudintermedius strain HH15; details: HH15, 24 h, read-out: minimal inhibiting concentration (breakthrough point)
[3] = tested on: Staphylococcus pseudintermedius strain 69687; details: Staphylococcus pseudintermedius, 69687, 24 h, read-out: minimal inhibiting concentration (breakthrough point)
[4] = tested on: Staphylococcus pseudintermedius strain GL151A; details: 24 h, read-out: minimal inhibiting concentration (breakthrough point)

Measured: MIC

CCC[C@@H]1C[C@@H](C(=O)N[C@@H]([C@H]2O[C@H](SC)[C@H](O)[C@@H](O)[C@H]2O)[C@H](C)Cl)N(C)C1 [clindamycin]
625 µg/mL: all assays above
